Measured values from ChEMBL document CHEMBL1127282, “Structure-activity relationships in the amino acid sidechain of L-692,429” (Bioorg Med Chem Lett, 1994).
Active and inactive are the calls of the source. The rule behind the calls is not given here.

Legend:
[1] = target: Growth hormone secretagogue receptor type 1 (Rattus norvegicus) (UniProt O08725); assay: In vitro effective dose was measured for the growth hormone release in rat pituitary cells; format: functional, cell-based; settings: Pituitary gland cell
Sequence of Growth hormone secretagogue receptor type 1 (Rattus norvegicus) (O08725 whole entry): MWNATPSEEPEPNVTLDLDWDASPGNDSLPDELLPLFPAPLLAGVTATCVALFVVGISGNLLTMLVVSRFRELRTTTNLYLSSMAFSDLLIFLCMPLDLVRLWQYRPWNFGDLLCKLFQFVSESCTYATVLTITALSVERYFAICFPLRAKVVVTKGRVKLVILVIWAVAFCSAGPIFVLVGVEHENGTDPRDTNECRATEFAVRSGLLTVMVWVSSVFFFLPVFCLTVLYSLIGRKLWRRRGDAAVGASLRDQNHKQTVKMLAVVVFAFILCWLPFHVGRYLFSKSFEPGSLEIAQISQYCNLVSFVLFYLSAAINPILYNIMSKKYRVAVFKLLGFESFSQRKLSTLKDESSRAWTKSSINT

[2] = pKa value was determined; format: physicochemical
Rattus norvegicus = species on record: Rattus norvegicus; assay: In vitro effective dose was measured for the growth hormone release in rat pituitary cells; Inactive at 20 ug/mL; format: functional, cell-based; settings: Pituitary gland cell

Row | Compound | ED50 [1] [nM] | further results
1 | CCCNC(C)(C)CC(=O)N[C@@H]1CCc2ccccc2N(Cc2ccc(-c3ccccc3-c3nn[nH]n3)cc2)C1=O | 50000 | –
2 | CC(C)(N)C(=O)N[C@@H]1CCc2ccccc2N(Cc2ccc(-c3ccccc3-c3nn[nH]n3)cc2)C1=O | 30 | pKa [2]: 7.9
3 | CC(C)(N)CC(=O)N[C@@H]1CCc2ccccc2N(Cc2ccc(-c3ccccc3-c3nnn[nH]3)cc2)C1=O | – | pKa [2]: 9.3
4 | CC(C)(C)CC(=O)N[C@@H]1CCc2ccccc2N(Cc2ccc(-c3ccccc3-c3nn[nH]n3)cc2)C1=O | – | ED50 (Rattus norvegicus): inactive
5 | NCCC(=O)N[C@@H]1CCc2ccccc2N(Cc2ccc(-c3ccccc3-c3nn[nH]n3)cc2)C1=O | 2000 | –
6 | CC(=O)NC(C)(C)CC(=O)N[C@@H]1CCc2ccccc2N(Cc2ccc(-c3ccccc3-c3nn[nH]n3)cc2)C1=O | – | ED50 (Rattus norvegicus): inactive
7 | C[C@@H](O)CNC(C)(C)CC(=O)N[C@@H]1CCc2ccccc2N(Cc2ccc(-c3ccccc3-c3nnn[nH]3)cc2)C1=O [L-692585] | – | pKa [2]: 9.1
8 | CC(C)CNC(C)(C)CC(=O)N[C@@H]1CCc2ccccc2N(Cc2ccc(-c3ccccc3-c3nn[nH]n3)cc2)C1=O | 85000 | –
9 | CC(C)(CC(=O)N[C@@H]1CCc2ccccc2N(Cc2ccc(-c3ccccc3-c3nn[nH]n3)cc2)C1=O)NCCO | 30000 | –
10 | C[C@@H](N)C(=O)N[C@@H]1CCc2ccccc2N(Cc2ccc(-c3ccccc3-c3nn[nH]n3)cc2)C1=O (stereo in doubt; 11) | 1400 | –
11 | N[C@H](Cc1ccccc1)C(=O)N[C@@H]1CCc2ccccc2N(Cc2ccc(-c3ccccc3-c3nn[nH]n3)cc2)C1=O | 2000 | –
12 | CC(=O)N[C@@H]1CCc2ccccc2N(Cc2ccc(-c3ccccc3-c3nn[nH]n3)cc2)C1=O | – | ED50 (Rattus norvegicus): inactive
13 | CC(C)(CC(=O)N[C@@H]1CCc2ccccc2N(Cc2ccc(-c3ccccc3-c3nn[nH]n3)cc2)C1=O)NC(=O)OC(C)(C)C | – | ED50 (Rattus norvegicus): inactive
14 | CC[C@@H](N)C(=O)N[C@@H]1CCc2ccccc2N(Cc2ccc(-c3ccccc3-c3nn[nH]n3)cc2)C1=O | 300 | –
15 | C[C@@H](O)CNC(C)(C)CC(=O)N[C@@H]1CCc2ccccc2N(Cc2ccc(-c3ccccc3-c3nn[nH]n3)cc2)C1=O | 3000 | –
16 | CC(C)(CC(=O)N[C@@H]1CCc2ccccc2N(Cc2ccc(-c3ccccc3-c3nn[nH]n3)cc2)C1=O)NCCN | 230000 | –
17 | C[C@@H](N)C(=O)N[C@@H]1CCc2ccccc2N(Cc2ccc(-c3ccccc3-c3nn[nH]n3)cc2)C1=O (stereo in doubt; 12) | 100 | –

Second part, led by results:

Row | ED50 [1] [nM] | Compound | further results
18 | 7000 | C[C@H](O)CNC(C)(C)CC(=O)N[C@@H]1CCc2ccccc2N(Cc2ccc(-c3ccccc3-c3nn[nH]n3)cc2)C1=O | –
19 | 3000 | CC(C)(CN)C(=O)N[C@@H]1CCc2ccccc2N(Cc2ccc(-c3ccccc3-c3nn[nH]n3)cc2)C1=O | –
20 | 60 | CC(C)(N)CC(=O)N[C@@H]1CCc2ccccc2N(Cc2ccc(-c3ccccc3-c3nn[nH]n3)cc2)C1=O | –
21 | 3000 | CC(C)(N)CCC(=O)N[C@@H]1CCc2ccccc2N(Cc2ccc(-c3ccccc3-c3nn[nH]n3)cc2)C1=O | –
22 | 9000 | NCC(=O)N[C@@H]1CCc2ccccc2N(Cc2ccc(-c3ccccc3-c3nn[nH]n3)cc2)C1=O | –
23 | 9000 | N[C@@H]1CCc2ccccc2N(Cc2ccc(-c3ccccc3-c3nn[nH]n3)cc2)C1=O | –
24 | 65000 | CC(C)(CC(=O)N[C@@H]1CCc2ccccc2N(Cc2ccc(-c3ccccc3-c3nn[nH]n3)cc2)C1=O)NCc1ccccc1 | –
